Experimental data as given in US20160220523A1 (GEORGETOWN UNIVERSITY, priority 2013, published 2016).

Experiments:
Assay type in all cases: cell-based, murine
[1] = test system: PGC-1α; assay: PGC-1α expression in LPS-treated BV2 cells (RT-PCR); conditions: GW6471 0.25-2 μM 0.5 hrs, 20 μM fenofibrate 18 hrs, 100 ng/mL LPS 4 hrs
Experimental: (§1) PGC-1α expression was determined by RT-PCR.
(§2) Then the cells were treated with 100 ng/mL LPS for 4 hrs. […] (**p<0.01 vs. control; ##p<0.001 vs. LPS).
(§3) MN9D cells were cultured in Dulbecco's Modified Eagle Medium (DMEM) supplemented with 10% fetal bovine serum, and 3.7 g/L sodium bicarbonate at 37° C., 5% carbon dioxide. BV-2 cells (murine microglia) were maintained in DMEM supplemented with 10% fetal bovine serum and antibiotics (penicillin, 100 U/mL, streptomycin […]). Antibiotics were omitted for the fenofibrate evaluation study.

[2] = test system: IL-1β; assay: LPS-induced IL-1β expression in BV2 cells (RT-PCR)
Experimental: as §1, §2
(§4) Cell lysate was collected for Western blotting analysis.
as §3
(§5) AMPK is an energy sensor and can phosphorylate PGC-1α. It is plausible that AMPK phosphorylates PGC-1α and that PGC-1α then acts through positive feedback, binding to myocyte enhancer factor (MEF)-binding site to increase its own gene expression.

[3] = test system: AMPK; assay: AMPK phosphorylation in BV2 cells (Western blot); conditions: compound C 0.5 hour, then fenofibrate 1 hour
Experimental: as §4
BV-2 cells (murine microglia) were maintained in Dulbecco's Modified Eagle Medium supplemented with 10% fetal bovine serum and antibiotics (penicillin, 100 U/mL, streptomycin 100 μg/mL). Antibiotics were omitted for the fenofibrate evaluation study.
as §5

CCC(=O)NC[C@H](Cc1ccc(OCCc2nc(-c3ccccc3)oc2C)cc1)N/C(C)=C\C(=O)c1ccc(C(F)(F)F)cc1 [GW6471]
effect on fenofibrate mediated PGC-1α upregulation [1]: fails to suppress | effect on fenofibrate mediated anti-inflammatory effects (IL-1β mRNA) ([2]; GW6471 0.25-2 μM 0.5 hrs, 20 μM fenofibrate 18 hrs, 100 ng/mL LPS 4 hrs): fails to suppress

c1cc(-c2cnn3cc(-c4ccc(OCCN5CCCCC5)cc4)cnc23)ccn1 [compound C]
effect on fenofibrate mediated anti-inflammation (IL-1β gene expression) ([2]; Compound C 0.5 hour, then fenofibrate overnight, LPS): weakened the anti-inflammatory effects of fenofibrate | AMPK phosphorylation under fenofibrate [3]: concentration-dependent inhibitory effect
